Target: T1, cellular PARG (Homo sapiens, UniProt Q86W56)
T1 construct: endogenous in cells; host or cells: HeLa
Assay: Nuclear PAR accumulation assay (immunofluorescence high-content imaging, MMS-treated HeLa cells)
Assay type: cell-based
Settings: 1 hour compound then MMS 50 μg/mL for an additional hour
In short: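 HeLa cells pretreated with compound for 1 h at 37° C, then given 50 μg/mL MMS for another hour. After methanol fixation, PAR was immunostained with DAPI nuclear counterstain; per-nucleus intensity and percent PAR-positive cells were imaged at 20× (≥1,000 cells/well). IC50 from four-parameter logistic fit.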

T1 sequence (Q86W56 whole entry): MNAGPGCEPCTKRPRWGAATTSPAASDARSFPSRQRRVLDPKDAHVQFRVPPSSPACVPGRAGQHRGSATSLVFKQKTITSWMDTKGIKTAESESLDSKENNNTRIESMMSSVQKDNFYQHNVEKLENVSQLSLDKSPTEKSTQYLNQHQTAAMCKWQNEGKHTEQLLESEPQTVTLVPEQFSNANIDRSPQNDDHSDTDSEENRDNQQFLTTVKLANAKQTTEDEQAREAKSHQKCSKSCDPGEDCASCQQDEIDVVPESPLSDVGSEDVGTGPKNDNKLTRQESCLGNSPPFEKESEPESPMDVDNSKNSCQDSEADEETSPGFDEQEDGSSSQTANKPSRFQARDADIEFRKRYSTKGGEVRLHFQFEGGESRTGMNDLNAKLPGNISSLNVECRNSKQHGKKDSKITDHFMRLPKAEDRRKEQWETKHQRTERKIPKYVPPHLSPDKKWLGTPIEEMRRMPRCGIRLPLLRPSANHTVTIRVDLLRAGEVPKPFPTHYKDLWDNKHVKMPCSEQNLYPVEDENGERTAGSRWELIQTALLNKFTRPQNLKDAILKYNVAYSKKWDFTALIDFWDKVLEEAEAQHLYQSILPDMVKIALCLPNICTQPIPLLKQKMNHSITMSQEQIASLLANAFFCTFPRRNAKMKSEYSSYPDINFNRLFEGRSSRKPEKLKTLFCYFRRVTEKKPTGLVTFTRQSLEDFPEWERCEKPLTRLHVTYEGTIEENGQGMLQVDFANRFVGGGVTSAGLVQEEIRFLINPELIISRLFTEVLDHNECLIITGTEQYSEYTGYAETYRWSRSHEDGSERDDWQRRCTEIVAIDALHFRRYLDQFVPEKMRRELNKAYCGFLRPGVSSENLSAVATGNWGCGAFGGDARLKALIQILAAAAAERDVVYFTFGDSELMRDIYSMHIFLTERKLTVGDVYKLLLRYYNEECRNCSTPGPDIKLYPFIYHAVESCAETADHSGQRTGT

| IC50 | Structure (SMILES) |
| --- | --- |
| < 100 nM | C[C@@H]1CN=C2N(Cc3ccc(C#N)nc3)C(=O)c3cc(S(=O)(=O)NC4(C)CC4)ccc3N21 [Example 233, (R)-4-((6-cyanopyridin-3-yl)methyl)-1-methyl-N-(1-methylcyclopropyl)-5-oxo-1,2,4,5-tetrahydroimidazo[1,2-a]quinazoline-7-sulfonamide] |
| < 100 nM | [2H]C([2H])(c1cnn(C)c1)N1C(=O)c2cc(S(=O)(=O)NC3(C)CC3)ccc2N2C1=NC[C@H]2C#CC1(N(C)CCO)CC1 [Example 244, (R)-1-((1-((2-hydroxyethyl)(methyl)amino)cyclopropyl)ethynyl)-4-((1-methyl-1H-pyrazol-4-yl)methyl-d2)-N-(1-methylcyclopropyl)-5-oxo-1,2,4,5-tetrahydroimidazo[1,2-a]quinazoline-7-sulfonamide] |
| < 100 nM | CCN1C(=O)c2cc(S(=O)(=O)NC3(C)CC3)ccc2N2C1=NC[C@H]2C#Cc1nn(C)nc1C [Example 257, (R)-1-((2,5-dimethyl-2H-1,2,3-triazol-4-yl)ethynyl)-4-ethyl-N-(1-methylcyclopropyl)-5-oxo-1,2,4,5-tetrahydroimidazo[1,2-a]quinazoline-7-sulfonamide] |
| 100 to 1000 nM | [2H]C([2H])(c1cnn(C)c1)N1C(=O)c2cc(S(=O)(=O)NC3(C)CC3)ccc2N2C1=N[C@@H]1C[C@@H](N(C)C)C[C@@H]12 [Example 285, (7aR,9R,10aS)-9-(dimethylamino)-6-((1-methyl-1H-pyrazol-4-yl)methyl-d2)-N-(1-methylcyclopropyl)-5-oxo-6,7a,8,9,10,10a-hexahydro-5H-cyclopenta[4,5]imidazo[1,2-a]quinazoline-3-sulfonamide] |
| < 100 nM | Cc1cc(C#C[C@@H]2CN=C3N(Cc4cnn(C)c4)C(=O)c4cc(S(=O)(=O)NC5(C)CC5)ccc4N32)ccn1 [Example 238, (R)-4-((1-methyl-1H-pyrazol-4-yl)methyl)-N-(1-methylcyclopropyl)-1-((2-methylpyridin-4-yl)ethynyl)-5-oxo-1,2,4,5-tetrahydroimidazo[1,2-a]quinazoline-7-sulfonamide] |
| < 100 nM | [2H]C([2H])(c1cnn(C)c1)N1C(=O)c2cc(S(=O)(=O)NC3(C)CC3)ccc2N2C1=NC[C@H]2C#Cc1ncc(C)nc1C [Example 251, (R)-1-((3,5-dimethylpyrazin-2-yl)ethynyl)-4-((1-methyl-1H-pyrazol-4-yl)methyl-d2)-N-(1-methylcyclopropyl)-5-oxo-1,2,4,5-tetrahydroimidazo[1,2-a]quinazoline-7-sulfonamide] |
| 100 to 1000 nM | C[C@@H]1C[C@H](C)N2C(=N1)N(Cc1cnn(C)c1)C(=O)c1cc(S(=O)(=O)NC3(C)CC3)ccc12 [Example 235, (1S,3R)-1,3-dimethyl-5-((1-methyl-1H-pyrazol-4-yl)methyl)-N-(1-methylcyclopropyl)-6-oxo-2,3,5,6-tetrahydro-1H-pyrimido[1,2-a]quinazoline-8-sulfonamide] |
| 1000 to 10000 nM | [2H]C([2H])(c1cnn(C)c1)N1C(=O)c2cc(S(=O)(=O)NC3(C)CC3)ccc2N2C1=N[C@@H]1C[C@@H](N)C[C@@H]12 [Example 283, (7aR,9R,10aS)-9-amino-6-((1-methyl-1H-pyrazol-4-yl)methyl-d2)-N-(1-methylcyclopropyl)-5-oxo-6,7a,8,9,10,10a-hexahydro-5H-cyclopenta[4,5]imidazo[1,2-a]quinazoline-3-sulfonamide] |

More lines, now with the values behind:

| Structure (SMILES) | IC50 |
| --- | --- |
| CN1CCC([C@@H]2CN=C3N(Cc4cnn(C)c4)C(=O)c4cc(S(=O)(=O)NC5(C)CC5)ccc4N32)CC1 [Example 70, (R)-4-((1-methyl-1H-pyrazol-4-yl)methyl)-N-(1-methylcyclopropyl)-1-(1-methylpiperidin-4-yl)-5-oxo-1,2,4,5-tetrahydroimidazo[1,2-a]quinazoline-7-sulfonamide] | 1000 to 10000 nM |
| [2H]C([2H])(c1cnn(C)c1)N1C(=O)c2cc(S(=O)(=O)NC3(C)CC3)cc(Br)c2N2C1=NC[C@@H]2C#CC1CC1 [Example 95, (S)-9-bromo-1-(cyclopropylethynyl)-4-((1-methyl-1H-pyrazol-4-yl)methyl-d2)-N-(1-methylcyclopropyl)-5-oxo-1,2,4,5-tetrahydroimidazo[1,2-a]quinazoline-7-sulfonamide] | 100 to 1000 nM |
| Cn1cc(CN2C(=O)c3cc(S(=O)(=O)NC4(C)CC4)ccc3N3C2=NCC3COc2cccc(Cl)c2)cn1 (stereo not shown) [Example 138, 1-((3-chlorophenoxy)methyl)-4-((1-methyl-1H-pyrazol-4-yl)methyl)-N-(1-methylcyclopropyl)-5-oxo-1,2,4,5-tetrahydroimidazo[1,2-a]quinazoline-7-sulfonamide] | 100 to 1000 nM |
| CC(C)OC[C@@H]1CN=C2N(Cc3cnn(C)c3)C(=O)c3cc(S(=O)(=O)NC4(C)CC4)ccc3N21 [Example 19, (S)-1-(isopropoxymethyl)-4-((1-methyl-1H-pyrazol-4-yl)methyl)-N-(1-methylcyclopropyl)-5-oxo-1,2,4,5-tetrahydroimidazo[1,2-a]quinazoline-7-sulfonamide] | < 100 nM |
| [2H]C([2H])(c1cnn(C)c1)N1C(=O)c2cc(S(=O)(=O)NC3(C)CC3)cc(Br)c2N2C1=NC[C@H]2C#CC1CC1 [Example 15, (R)-9-bromo-1-(cyclopropylethynyl)-4-((1-methyl-1H-pyrazol-4-yl)methyl-d2)-N-(1-methylcyclopropyl)-5-oxo-1,2,4,5-tetrahydroimidazo[1,2-a]quinazoline-7-sulfonamide] | < 100 nM |
| C[C@@H]1CN=C2N(C)C(=O)c3cc(S(=O)(=O)NC4(C)CC4)cc(N4CCC5(CC4)COC5)c3N21 [Example 123, (R)-1,4-dimethyl-N-(1-methylcyclopropyl)-5-oxo-9-(2-oxa-7-azaspiro[3.5]nonan-7-yl)-1,2,4,5-tetrahydroimidazo[1,2-a]quinazoline-7-sulfonamide] | < 100 nM |
| CN1C(=O)c2cc(S(=O)(=O)NC3(C)CC3)ccc2N2C1=NC[C@H]2C#Cc1cnc2ncccn12 [Example 171, (R)-1-(imidazo[1,2-a]pyrimidin-3-ylethynyl)-4-methyl-N-(1-methylcyclopropyl)-5-oxo-1,2,4,5-tetrahydroimidazo[1,2-a]quinazoline-7-sulfonamide] | 100 to 1000 nM |
| [2H]C([2H])(c1cnn(C)c1)N1C(=O)c2cc(S(=O)(=O)NC3(C)CC3)ccc2N2C1=NC[C@H]2C#CC1CC1 [Example 14, (R)-1-(cyclopropylethynyl)-4-((1-methyl-1H-pyrazol-4-yl)methyl-d2)-N-(1-methylcyclopropyl)-5-oxo-1,2,4,5-tetrahydroimidazo[1,2-a]quinazoline-7-sulfonamide] | < 100 nM |
| Cn1cc(CN2C(=O)c3cc(S(=O)(=O)NC4(C)CC4)cc(Br)c3N3CC(C)(C)N=C23)cn1 [Example 3, 9-bromo-2,2-dimethyl-4-((1-methyl-1H-pyrazol-4-yl)methyl)-N-(1-methylcyclopropyl)-5-oxo-1,2,4,5-tetrahydroimidazo[1,2-a]quinazoline-7-sulfonamide] | 100 to 1000 nM |
| C[C@@H]1CN=C2N(Cc3cnn(C)c3)C(=O)c3cc(S(=O)(=O)NC4(C)CC4)cc(N4CCC(O)CC4)c3N21 [Example 27, (R)-9-(4-hydroxypiperidin-1-yl)-1-methyl-4-((1-methyl-1H-pyrazol-4-yl)methyl)-N-(1-methylcyclopropyl)-5-oxo-1,2,4,5-tetrahydroimidazo[1,2-a]quinazoline-7-sulfonamide] | 100 to 1000 nM |
| [2H]C([2H])(c1cnn(C)c1)N1C(=O)c2cc(S(=O)(=O)NC3(C)CC3)ccc2N2C1=NCC21CC(CN(C)C)C1 (stereo not shown) [Example 109, 3-((dimethylamino)methyl)-4′-((1-methyl-1H-pyrazol-4-yl)methyl-d2)-N-(1-methylcyclopropyl)-5′-oxo-4′,5′-dihydro-2′H-spiro[cyclobutane-1,1′-imidazo[1,2-a]quinazoline]-7′-sulfonamide] | 100 to 1000 nM |
| C[C@@H]1CON=C2N(Cc3cnn(C)c3)C(=O)c3cc(S(=O)(=O)NC4(C)CC4)ccc3N21 [Example 219, (R)-1-methyl-5-((1-methyl-1H-pyrazol-4-yl)methyl)-N-(1-methylcyclopropyl)-6-oxo-1,2,5,6-tetrahydro-[1,2,4]oxadiazino[4,3-a]quinazoline-8-sulfonamide] | < 100 nM |
| Cc1nn(C)cc1C#C[C@@H]1CN=C2N(Cc3cnn(C)c3)C(=O)c3cc(S(=O)(=O)NC4(C)CC4)ccc3N21 [Example 218, (R)-1-((1,3-dimethyl-1H-pyrazol-4-yl)ethynyl)-4-((1-methyl-1H-pyrazol-4-yl)methyl)-N-(1-methylcyclopropyl)-5-oxo-1,2,4,5-tetrahydroimidazo[1,2-a]quinazoline-7-sulfonamide] | < 100 nM |
| C[C@@H]1CN=C2N(C)C(=O)c3cc(S(=O)(=O)NC4(C)CC4)cc(-c4ccccc4C#N)c3N21 [Example 63, (R)-9-(2-cyanophenyl)-1,4-dimethyl-N-(1-methylcyclopropyl)-5-oxo-1,2,4,5-tetrahydroimidazo[1,2-a]quinazoline-7-sulfonamide] | 1000 to 10000 nM |
| Cc1nc([C@@H]2CN=C3N(Cc4cnn(C)c4)C(=O)c4cc(S(=O)(=O)NC5(C)CC5)ccc4N32)co1 [Example 119, (S)-4-((1-methyl-1H-pyrazol-4-yl)methyl)-N-(1-methylcyclopropyl)-1-(2-methyloxazol-4-yl)-5-oxo-1,2,4,5-tetrahydroimidazo[1,2-a]quinazoline-7-sulfonamide] | 100 to 1000 nM |
| Cn1cc(CN2C(=O)c3cc(S(=O)(=O)NC4(C)CC4)ccc3N3C2=NC[C@H]3C2CCCC2)cn1 [Example 48, (R)-1-cyclopentyl-4-((1-methyl-1H-pyrazol-4-yl)methyl)-N-(1-methylcyclopropyl)-5-oxo-1,2,4,5-tetrahydroimidazo[1,2-a]quinazoline-7-sulfonamide] | < 100 nM |
| C[C@@H]1CN=C2N(C)C(=O)c3cc(S(=O)(=O)NC4(C)CC4)cc(N4CCN(C(=O)N(C)C)CC4)c3N21 [Example 33, (R)-4-(1,4-dimethyl-7-(N-(1-methylcyclopropyl)sulfamoyl)-5-oxo-1,2,4,5-tetrahydroimidazo[1,2-a]quinazolin-9-yl)-N,N-dimethylpiperazine-1-carboxamide] | < 100 nM |

— patent publication US20260285875A1, “INHIBITORS OF PARG” (858 Therapeutics, Inc., priority 2023, published 2026)
